From patent publication US20110112147A1, “INDAZOLONE ANALOGS AS GLYCOGEN SYNTHASE ACTIVATORS” (priority 2009, published 2011)

Tested on: glycogen synthase
Assay: Glycogen Synthase (GS) Assay
Type: biochemical
Conditions: for EC50: compound concentration needed to give 50% maximum activation; for GS SC200: compound concentration needed to stimulate 200% of the enzyme activity
Experimental: Twelve μL per well of substrate solution containing glycogen (4.32 mg/ml), 2.67 mM UDP-glucose, 21.6 mM phospho(enol)pyruvate and 2.7 mM NADH in 30 mM glycylglycine, pH 7.3 buffer was added into a polystyrene 384-well assay plate (BD Biosciences).
Compound solutions (8 μL/well) at various concentrations (0-300 μM) were added to the assay plate (columns 5-24). Compound solution contains 30 mM glycylglycine, pH 7.3, 40 mM KCl, 20 mM MgCl2, 9.2% DMSO, with (columns 15-24) or without (columns 5-14) 20 mM glucose 6-phosphate.
Enzyme solution (12 μL/well) containing glycogen synthase (16.88 μg/ml), pyruvate kinase (0.27 mg/ml), lactate dehydrogenase (0.27 mg/ml) in 50 mM Tris-HCl, pH 8.0, 27 mM DTT and bovine serum albumin (BSA, 0.2 mg/ml) was added to the assay plate (columns 3-24). As a blank control, enzyme solution without glycogen synthase was added into the top half wells of columns 1-2. To the bottom half wells of columns 1-2 were added a known activator, glucose 6-phosphate (at final concentration 5 mM) in addition to the enzyme solution. The reaction mixture was incubated at room temperature. The assay plate was then read for absorbance at 340 nm on an Envision reader every 3 minutes up to a total of 15 minutes.
The enzyme activity (with or without compound) was calculated by the reaction rate and represented by the optical density change (δOD) per minute. Percent stimulation of glycogen synthase activity by a compound at various concentrations was calculated by the following formula: […]
wherein Rs is the reaction rate of the enzyme in the presence of compound and Rt is the reaction rate of the enzyme in the absence of compound.
SC200 is defined as the compound concentration that is needed to stimulate 200% of the enzyme activity. EC50 is defined as the compound concentration that is needed to give 50% maximum activation.

In the case of `COCCn1[nH]c2c(COc3ccc(-c4cc(F)c(F)cc4F)cc3)cccc2c1=O.Cl` [Example 6, 2-(2-Methoxy-ethyl)-7-(2′,4′,5′-trifluoro-biphenyl-4-yloxymethyl)-1,2-dihydro-indazol-3-one Hydrochloride], the EC50 is reported as 790 nM and the “GS SC200” value is reported as 0.52 µM.
With `O=c1c2cccc(COc3ccc(-c4cc(F)c(F)cc4Cl)cc3)c2[nH]n1C[C@H](O)CO` [Example 22, 7-(2′-Chloro-4′,5′-difluoro-biphenyl-4-yloxymethyl)-2-((S)-2,3-dihydroxy-propyl)-1,2-dihydro-indazol-3-one] the EC50 was 300 nM and the “GS SC200” value was 0.16 µM.
In the case of `O=c1c2cccc(COc3ccc(-c4cc(F)c(F)cc4Cl)cc3)c2[nH]n1-c1cccnc1` [Example 14, 7-(4′,5′-Difluoro-2′-chloro-biphenyl-4-yloxymethyl)-2-pyridin-3-yl-1,2-dihydro-indazol-3-one], the EC50 is reported as 1860 nM and the “GS SC200” value is reported as 1.14 µM.
`COc1cc(F)c(F)cc1-c1ccc(OCc2cccc3c(=O)n(CC(=O)O)[nH]c23)cc1` [Example 5, [7-(4′,5′-Difluoro-2′-methoxy-biphenyl-4-yloxymethyl)-3-oxo-1,3-dihydro-indazol-2-yl]-acetic acid] was tested, and the EC50 was 200 nM and the “GS SC200” value was 0.06 µM.
For `COc1cc(F)c(F)cc1-c1ccc(OCc2cccc3c(=O)n(-c4ccc(F)cc4)[nH]c23)cc1` [Example 11, 7-(4′,5′-Difluoro-2′-methoxy-biphenyl-4-yloxymethyl)-2-(4-fluoro-phenyl)-1,2-dihydro-indazol-3-one], the EC50 was 1370 nM and the “GS SC200” value was 2.01 µM.
For `Cc1cc(F)c(F)cc1-c1ccc(OCc2cccc3c(=O)n(C[C@H](O)CO)[nH]c23)cc1` [Example 20, 7-(4′,5′-Difluoro-2′-methyl-biphenyl-4-yloxymethyl)-2-((S)-2,3-dihydroxy-propyl)-1,2-dihydro-indazol-3-one], the EC50 was 340 nM and the “GS SC200” value was 0.11 µM.
For `COc1cc(F)c(F)cc1-c1ccc(OCc2cccc3c(=O)n(-c4cccnc4)[nH]c23)cc1` [Example 12, 7-(4′,5′-Difluoro-2′-methoxy-biphenyl-4-yloxymethyl)-2-pyridin-3-yl-1,2-dihydro-indazol-3-one], the EC50 was 780 nM and the “GS SC200” value was 0.60 µM.
`Cc1cc(F)c(F)cc1-c1ccc(OCc2cccc3c(=O)n(C[C@@H](O)CO)[nH]c23)cc1` [Example 19, 7-(4′,5′-Difluoro-2′-methyl-biphenyl-4-yloxymethyl)-2-((R)-2,3-dihydroxy-propyl)-1,2-dihydro-indazol-3-one] was tested, and the EC50 was 230 nM and the “GS SC200” value was 0.10 µM.
`COc1cc(F)c(F)cc1-c1ccc(OCc2cccc3c(=O)n(C)[nH]c23)cc1` [Example 3, 7-(4′,5′-Difluoro-2′-methoxy-biphenyl-4-yloxymethyl)-2-methyl-1,2-dihydro-indazol-3-one] was tested, and the EC50 was 330 nM and the “GS SC200” value was 0.04 µM.
`COCCn1[nH]c2c(COc3ccc(-c4cc(F)c(F)cc4OC)cc3)cccc2c1=O` [Example 7, 7-(4′,5′-Difluoro-2′-methoxy-biphenyl-4-yloxymethyl)-2-(2-methoxy-ethyl)-1,2-dihydro-indazol-3-one] was tested, and the EC50 was 370 nM and the “GS SC200” value was 0.11 µM.
For `Cl.O=c1c2cccc(COc3ccc(-c4cc(F)c(F)cc4F)cc3)c2[nH]n1-c1cccnc1` [Example 13, 2-Pyridin-3-yl-7-(2′,4′,5′-trifluoro-biphenyl-4-yloxymethyl)-1,2-dihydro-indazol-3-one Hydrochloride], the EC50 was 4010 nM and the “GS SC200” value was 2.75 µM.
With `Cc1cc(F)c(F)cc1-c1ccc(OCc2cccc3c(=O)n(CC(=O)O)[nH]c23)cc1.Cl` [Example 9, [7-(4′,5′-Difluoro-2′-methyl-biphenyl-4-yloxymethyl)-3-oxo-1,3-dihydro-indazol-2-yl]acetic acid Hydrochloride] the EC50 was 420 nM and the “GS SC200” value was 0.33 µM.
In the case of `O=C(O)Cn1[nH]c2c(COc3ccc(-c4cc(F)c(F)cc4F)cc3)cccc2c1=O` [Example 4, [3-oxo-7-(2′,4′,5′-trifluoro-biphenyl-4-yloxymethyl)-1,3-dihydro-indazol-2-yl]-acetic acid], the EC50 is reported as 1200 nM and the “GS SC200” value is reported as 0.69 µM.
`O=c1c2cccc(COc3ccc(-c4cc(F)c(F)cc4F)cc3)c2[nH]n1C[C@@H](O)CO` [Example 15, 2-((R)-2,3-Dihydroxy-propyl)-7-(2′,4′,5′-trifluoro-biphenyl-4-yloxymethyl)-1,2-dihydro-indazol-3-one] was tested, and the EC50 was 680 nM and the “GS SC200” value was 0.32 µM.
`O=c1c2cccc(COc3ccc(-c4cc(F)c(F)cc4Cl)cc3)c2[nH]n1C[C@@H](O)CO` [Example 21, 7-(2′-Chloro-4′,5′-difluoro-biphenyl-4-yloxymethyl)-2-((R)-2,3-dihydroxy-propyl)-1,2-dihydro-indazol-3-one] was tested, and the EC50 was 260 nM and the “GS SC200” value was 0.25 µM.
For `COc1cc(F)c(F)cc1-c1ccc(OCc2cccc3c(=O)n(C[C@H](O)CO)[nH]c23)cc1` [Example 18, 7-(4′,5′-Difluoro-2′-methoxy-biphenyl-4-yloxymethyl)-2-((S)-2,3-dihydroxy-propyl)-1,2-dihydro-indazol-3-one], the EC50 was 250 nM and the “GS SC200” value was 0.07 µM.
In the case of `Cc1cc(F)c(F)cc1-c1ccc(OCc2cccc3c(=O)n(-c4ccc(F)cc4)[nH]c23)cc1` [Example 10, 7-(4′,5′-Difluoro-2′-methyl-biphenyl-4-yloxymethyl)-2-(4-fluoro-phenyl)-1,2-dihydro-indazol-3-one], the EC50 is reported as 1470 nM and the “GS SC200” value is reported as 1.86 µM.
For `O=c1c2cccc(COc3ccc(-c4cc(F)c(F)cc4F)cc3)c2[nH]n1CCO` [Example 8, 2-(2-Hydroxy-ethyl)-7-(2′,4′,5′-trifluoro-biphenyl-4-yloxymethyl)-1,2-dihydro-indazol-3-one], the EC50 was 770 nM and the “GS SC200” value was 0.22 µM.
With `O=c1c2cccc(COc3ccc(-c4cc(F)c(F)cc4F)cc3)c2[nH]n1C[C@H](O)CO` [Example 16, 2-((S)-2,3-Dihydroxy-propyl)-7-(2′,4′,5′-trifluoro-biphenyl-4-yloxymethyl)-1,2-dihydro-indazol-3-one] the EC50 was 580 nM and the “GS SC200” value was 0.41 µM.
In the case of `COc1cc(F)c(F)cc1-c1ccc(OCc2cccc3c(=O)n(C[C@@H](O)CO)[nH]c23)cc1` [Example 17, 7-(4′,5′-Difluoro-2′-methoxy-biphenyl-4-yloxymethyl)-2-((R)-2,3-dihydroxy-propyl)-1,2-dihydro-indazol-3-one], the EC50 is reported as 270 nM and the “GS SC200” value is reported as 0.06 µM.
For `Cc1cc(F)c(F)cc1-c1ccc(OCc2cccc3c(=O)n(C)[nH]c23)cc1` [Example 1, 7-(4′,5′-Difluoro-2′-methyl-biphenyl-4-yloxymethyl)-2-methyl-1,2-dihydro-indazol-3-one], the EC50 was 240 nM and the “GS SC200” value was 0.13 µM.
For `Cn1[nH]c2c(COc3ccc(-c4cc(F)c(F)cc4F)cc3)cccc2c1=O` [Example 2, 2-Methyl-7-(2′,4′,5′-trifluoro-biphenyl-4-yloxymethyl)-1,2-dihydro-indazol-3-one], the EC50 was 1780 nM and the “GS SC200” value was 0.49 µM.
